Test results as given in the NIST ThermoML archive (doi:10.1021/je030102f).
Numbers after ± are expanded uncertainties.

What was measured:
[1] = xn = mol fraction of the nth substance listed; details: 101.33 kPa, Liquid, vibrating tube
[2] = 101.33 kPa, Liquid, vibrating tube

Structure (SMILES)	mass density ([2]; 283.15 K) [kg/m3]	mass density ([2]; 288.15 K) [kg/m3]	mass density ([2]; 293.15 K) [kg/m3]	mass density ([2]; 298.15 K) [kg/m3]	mass density ([2]; 303.14 K) [kg/m3]	mass density ([2]; 308.15 K) [kg/m3]	mass density ([2]; 313.14 K) [kg/m3]	mass density ([2]; 318.14 K) [kg/m3]	mass density ([2]; 323.14 K) [kg/m3]	mass density ([1]; 283.15 K, x2 = 0) [kg/m3]	mass density ([1]; 318.14 K, x2 = 0) [kg/m3]	mass density ([1]; 323.14 K, x2 = 0) [kg/m3]	other results
CC(C)=O [acetone] + CCC(=O)O													mass density ([1]; 283.15 K, x1 = 1): 801.669 ± 0.14 kg/m3; mass density ([1]; 288.15 K, x1 = 1): 796.037 ± 0.14 kg/m3; mass density ([1]; 293.15 K, x1 = 1): 790.355 ± 0.14 kg/m3; mass density ([1]; 298.15 K, x1 = 1): 784.638 ± 0.14 kg/m3; mass density ([1]; 303.14 K, x1 = 1): 778.876 ± 0.14 kg/m3; mass density ([1]; 308.15 K, x1 = 1): 773.065 ± 0.14 kg/m3; mass density ([1]; 313.14 K, x1 = 1): 767.205 ± 0.14 kg/m3; mass density ([1]; 318.14 K, x1 = 1): 761.288 ± 0.14 kg/m3; mass density ([1]; 323.14 K, x1 = 1): 755.314 ± 0.14 kg/m3
CC(C)=O [acetone]	801.669 ± 0.14	796.037 ± 0.14	790.355 ± 0.14	784.638 ± 0.14	778.876 ± 0.14	773.065 ± 0.14	767.205 ± 0.14	761.288 ± 0.14	755.314 ± 0.14				
CCC(=O)O [propanoic acid]	1004.11 ± 0.51	998.688 ± 0.51	993.261 ± 0.51	987.847 ± 0.51	982.44 ± 0.5	977.037 ± 0.5	971.635 ± 0.5	966.24 ± 0.49					mass density ([2]; 323.15 K): 960.843 ± 0.49 kg/m3
O [water]	999.691 ± 0.082							990.13 ± 0.084	988.003 ± 0.084				
O [water] + CCC(=O)O										999.691 ± 0.082	990.13 ± 0.084	988.003 ± 0.084	
O [water] + CC(C)=O										999.691 ± 0.082	990.13 ± 0.084	988.003 ± 0.084	
